Data taken from ChEMBL document CHEMBL5331051, “Cationic, amphipathic small molecules based on a triazine-piperazine-triazine scaffold as a new class of antimicrobial agents” (Eur J Med Chem, 2022).
Converted amounts (≈) assume the structure as drawn. The source made the active and inactive calls. The calls are words filed in the database; no cut-off is given here.

Assays:
Staphylococcus aureus [1] = assay: Antibacterial activity against methicillin-resistant Staphylococcus aureus CCARM 3089 strain assessed as bacterial growth inhibition measured at 18 to 24 hrs by microdilution assay; assay type: functional; details: time 18-24 hrs
Pseudomonas aeruginosa [2] = assay: Antibacterial activity against multidrug-resistant Pseudomonas aeruginosa CCARM 2095 strain assessed as bacterial growth inhibition by checkerboard assay; assay type: functional
Pseudomonas aeruginosa [3] = assay: Additive antibacterial activity against multidrug-resistant Pseudomonas aeruginosa CCARM 2095 strain assessed as bacterial growth inhibition by checkerboard assay; assay type: functional
Pseudomonas aeruginosa [4] = assay: Bactericidal activity against multidrug-resistant Pseudomonas aeruginosa CCARM 2095 measured after 24 hrs by time-kill kinetics assay; assay type: functional, organism-based
Pseudomonas aeruginosa [5] = assay: Antibacterial activity against multidrug-resistant Pseudomonas aeruginosa CCARM 2109 strain assessed as bacterial growth inhibition measured at 18 to 24 hrs by microdilution assay; assay type: functional; details: time 18-24 hrs
Staphylococcus aureus [6] = assay: Antibacterial activity against methicillin-resistant Staphylococcus aureus CCARM 3095 strain assessed as bacterial growth inhibition measured at 18 to 24 hrs by microdilution assay; assay type: functional; details: time 18-24 hrs
Enterococcus faecium = assay: Antibacterial activity against vancomycin-resistant Enterococcus faecium ATCC 51559 strain assessed as bacterial growth inhibition measured at 18 to 24 hrs by microdilution assay; assay type: functional; details: time 18-24 hrs
Pseudomonas aeruginosa [7] = assay: Bacteriostatic activity against multidrug-resistant Pseudomonas aeruginosa CCARM 2095 measured after 24 hrs by time-kill kinetics assay; assay type: functional, organism-based
Staphylococcus aureus [8] = assay: Antibacterial activity against methicillin-resistant Staphylococcus aureus CCARM 3090 strain assessed as bacterial growth inhibition measured at 18 to 24 hrs by microdilution assay; assay type: functional; details: time 18-24 hrs
Pseudomonas aeruginosa [9] = assay: Antibacterial activity against multidrug-resistant Pseudomonas aeruginosa CCARM 2095 strain assessed as bacterial growth inhibition measured at 18 to 24 hrs by microdilution assay; assay type: functional; details: time 18-24 hrs
Pseudomonas aeruginosa [10] = assay: Synergistic antibacterial activity against multidrug-resistant Pseudomonas aeruginosa CCARM 2095 strain assessed as bacterial growth inhibition by checkerboard assay; assay type: functional
Pseudomonas aeruginosa [11] = assay: Additive antibacterial activity against multidrug-resistant Pseudomonas aeruginosa CCARM 2095 strain assessed as fractional inhibitory concentration in presence of ciprofloxacin by checkerboard assay; assay type: functional
Pseudomonas aeruginosa [12] = assay: Additive antibacterial activity against multidrug-resistant Pseudomonas aeruginosa CCARM 2095 strain assessed as bacterial growth inhibition in presence of chloramphenicol by checkerboard assay; assay type: functional
Pseudomonas aeruginosa [13] = assay: Additive antibacterial activity against multidrug-resistant Pseudomonas aeruginosa CCARM 2095 strain assessed as fractional inhibitory concentration index in presence of oxacillin by checkerboard assay; assay type: functional
Pseudomonas aeruginosa [14] = assay: Additive antibacterial activity against multidrug-resistant Pseudomonas aeruginosa CCARM 2095 strain assessed as fractional inhibitory concentration in presence of oxacillin by checkerboard assay; assay type: functional
Staphylococcus aureus [15] = assay: Additive antibacterial activity against methicillin-resistant Staphylococcus aureus CCARM 3089 strain assessed as bacterial growth inhibition in presence of chloramphenicol by checkerboard assay; assay type: functional
Cell membrane [16] = assay: Induction of cell membrane depolarization in Staphylococcus aureus assessed as fluorescence intensity at 2 to 16 times MIC by DiSC3(5) dye based fluorescence assay; assay type: subcellular
Cell membrane [17] = assay: Induction of cell membrane depolarization in Staphylococcus aureus assessed as increase in fluorescence intensity at 2 times MIC by DiSC3(5) dye based fluorescence assay
Staphylococcus aureus [18] = assay: Additive antibacterial activity against methicillin-resistant Staphylococcus aureus CCARM 3089 strain assessed as bacterial growth inhibition in presence of oxacillin by checkerboard assay; assay type: functional
Pseudomonas aeruginosa [19] = assay: Antibiofilm activity against multidrug-resistant Pseudomonas aeruginosa assessed as biofilm eradication; assay type: functional
Pseudomonas aeruginosa [20] = assay: Additive antibacterial activity against multidrug-resistant Pseudomonas aeruginosa CCARM 2095 strain assessed as oxacillin fractional inhibitory concentration by checkerboard assay; assay type: functional
Pseudomonas aeruginosa [21] = assay: Additive antibacterial activity against multidrug-resistant Pseudomonas aeruginosa CCARM 2095 strain assessed as fractional inhibitory concentration index in presence of chloramphenicol by checkerboard assay; assay type: functional
Staphylococcus aureus [22] = assay: Additive antibacterial activity against multidrug-resistant Staphylococcus aureus CCARM 3089 strain assessed as fractional inhibitory concentration index in presence of ciprofloxacin by checkerboard assay; assay type: functional
Pseudomonas aeruginosa [23] = assay: Additive antibacterial activity against multidrug-resistant Pseudomonas aeruginosa CCARM 2095 strain assessed as bacterial growth inhibition in presence of ciprofloxacin by checkerboard assay; assay type: functional
Pseudomonas aeruginosa [24] = assay: Antibiofilm activity against multidrug-resistant Pseudomonas aeruginosa assessed as inhibition of biofilm formation; assay type: functional
Staphylococcus aureus [25] = assay: Additive antibacterial activity against multidrug-resistant Staphylococcus aureus CCARM 3089 strain assessed as fractional inhibitory concentration index in presence of chloramphenicol by checkerboard assay; assay type: functional
Pseudomonas aeruginosa [26] = assay: Additive antibacterial activity against multidrug-resistant Pseudomonas aeruginosa CCARM 2095 strain assessed as chloramphenicol fractional inhibitory concentration by checkerboard assay; assay type: functional
Staphylococcus aureus [27] = assay: Additive antibacterial activity against methicillin-resistant Staphylococcus aureus CCARM 3089 strain assessed as chloramphenicol MIC by checkerboard assay; assay type: functional
Staphylococcus aureus [28] = assay: Additive antibacterial activity against methicillin-resistant Staphylococcus aureus CCARM 3089 strain assessed as ciprofloxacin MIC by checkerboard assay; assay type: functional
Pseudomonas aeruginosa [29] = assay: Additive antibacterial activity against multidrug-resistant Pseudomonas aeruginosa CCARM 2095 strain assessed as fractional inhibitory concentration in presence of chloramphenicol by checkerboard assay; assay type: functional
Pseudomonas aeruginosa [30] = assay: Additive antibacterial activity against multidrug-resistant Pseudomonas aeruginosa CCARM 2095 strain assessed as chloramphenicol MIC by checkerboard assay; assay type: functional
Pseudomonas aeruginosa [31] = assay: Additive antibacterial activity against multidrug-resistant Pseudomonas aeruginosa CCARM 2095 strain assessed as Oxacillin MIC by checkerboard assay; assay type: functional
Pseudomonas aeruginosa [32] = assay: Additive antibacterial activity against multidrug-resistant Pseudomonas aeruginosa CCARM 2095 strain assessed as bacterial growth inhibition in presence of oxacillin by checkerboard assay; assay type: functional
Staphylococcus aureus [33] = assay: Additive antibacterial activity against methicillin-resistant Staphylococcus aureus CCARM 3089 strain assessed as oxacillin MIC by checkerboard assay; assay type: functional
Lipopolysaccharide (LPS) [34] = assay: Binding affinity to Escherichia coli O111:B4 lipopolysaccharide assessed as suppression of FTIC labeled LPS binding to mouse RAW264.7 cells at 20 ug/ml pretreated with LPS followed by compound addition by flow cytometer assay (reference value: 67.4%); assay type: cell-based; details: dose 20.0 µg/ml
Lipopolysaccharide (LPS) [35] = assay: Displacement of BODIPY-TR-cadaverine from Escherichia coli O111:B4 lipopolysaccharide assessed as increase in fluorescence at 5 ug/ml by fluorescence based assay; details: dose 5.0 µg/ml
Pseudomonas aeruginosa [36] = assay: Additive antibacterial activity against multidrug-resistant Pseudomonas aeruginosa CCARM 2095 strain assessed as fractional inhibitory concentration index in presence of ciprofloxacin by checkerboard assay; assay type: functional
Lipopolysaccharide (LPS) [37] = assay: Binding affinity to Escherichia coli O111:B4 lipopolysaccharide assessed as suppression of FTIC labeled LPS binding to mouse RAW264.7 cells at 20 ug/ml pretreated LPS with cells for 1 hr followed by compound addition measured after 1 hr by flow cytometer assay (reference value: 48.12%); assay type: cell-based; details: dose 20.0 µg/ml
Staphylococcus aureus [38] = assay: Antibacterial activity against methicillin-resistant Staphylococcus aureus CCARM 3089 strain assessed as bacterial growth inhibition by checkerboard assay; assay type: functional
Cell membrane [39] = assay: Induction of cell membrane depolarization in Staphylococcus aureus assessed as increase in fluorescence intensity at 2 times MIC by SYTOX green staining based analysis
Cell membrane [40] = assay: Induction of outer membrane permeabilization in Escherichia coli KCTC 1682 assessed as increase in fluorescence intensity at 2 to 8 ug/ml by NPN staining based analysis; details: dose 2-8 µg/ml
Pseudomonas aeruginosa [41] = assay: Additive antibacterial activity against multidrug-resistant Pseudomonas aeruginosa CCARM 2095 strain assessed as ciprofloxacin fractional inhibitory concentration by checkerboard assay; assay type: functional
Cell membrane [42] = assay: Induction of inner membrane permeabilization in Escherichia coli ML-35 assessed as increase in […] at 2 times MIC by ONPG staining based analysis
Staphylococcus aureus [43] = assay: Additive antibacterial activity against methicillin-resistant Staphylococcus aureus CCARM 3089 strain assessed as bacterial growth inhibition in presence of ciprofloxacin by checkerboard assay; assay type: functional
Pseudomonas aeruginosa [44] = assay: Additive antibacterial activity against multidrug-resistant Pseudomonas aeruginosa CCARM 2095 strain assessed as ciprofloxacin MIC by checkerboard assay; assay type: functional

Structure (SMILES): O=C(N[C@H](CO)[C@H](O)c1ccc([N+](=O)[O-])cc1)C(Cl)Cl [CHLORAMPHENICOL]
- MIC (Staphylococcus aureus [1]): 3.16 mM (≈ 1020 µg/mL)
- MIC (Pseudomonas aeruginosa [2]): 1020 µg/mL
- MIC (Pseudomonas aeruginosa [3]): 1020 µg/mL
- Activity (Pseudomonas aeruginosa [4]): inactive
- MIC (Pseudomonas aeruginosa [5]): > 6.33 mM
- MIC (Staphylococcus aureus [6]): > 6.33 mM
- MIC (Enterococcus faecium): 1.58 mM (≈ 511 µg/mL)
- Activity (Pseudomonas aeruginosa [7]): inactive
- MIC (Staphylococcus aureus [8]): > 6.33 mM
- MIC (Pseudomonas aeruginosa [9]): 6.33 mM (≈ 2040 µg/mL)
- MIC (Pseudomonas aeruginosa [10]): 1020 µg/mL

Structure (SMILES): CC[C@H](C)[C@H](NC(=O)[C@H](CCCCN)NC(=O)[C@H](CCC(=O)O)NC(=O)[C@H](CCCCN)NC(=O)[C@H](CO)NC(=O)[C@H](CCCCN)NC(=O)[C@H](CCCNC(=N)N)NC(=O)[C@H](Cc1ccccc1)NC(=O)[C@H](Cc1ccccc1)NC(=O)[C@H](CC(=O)O)NC(=O)CNC(=O)[C@H](CC(C)C)NC(=O)[C@@H](N)CC(C)C)C(=O)NCC(=O)N[C@@H](CCCCN)C(=O)N[C@@H](CCC(=O)O)C(=O)N[C@@H](Cc1ccccc1)C(=O)N[C@@H](CCCCN)C(=O)N[C@@H](CCCNC(=N)N)C(=O)N[C@H](C(=O)N[C@H](C(=O)N[C@@H](CCC(N)=O)C(=O)N[C@@H](CCCNC(=N)N)C(=O)N[C@H](C(=O)N[C@@H](CCCCN)C(=O)N[C@@H](CC(=O)O)C(=O)N[C@@H](Cc1ccccc1)C(=O)N[C@@H](CC(C)C)C(=O)N[C@@H](CCCNC(=N)N)C(=O)N[C@@H](CC(N)=O)C(=O)N[C@@H](CC(C)C)C(=O)N[C@H](C(=O)N1CCC[C@H]1C(=O)N[C@@H](CCCNC(=N)N)C(=O)N[C@H](C(=O)N[C@@H](CCC(=O)O)C(=O)N[C@@H](CO)C(=O)O)[C@@H](C)O)C(C)C)[C@@H](C)CC)C(C)C)[C@@H](C)CC [CATHELICIDIN]
- FIC (Pseudomonas aeruginosa [11]): 0.5
- MIC (Pseudomonas aeruginosa [12]): 16 µg/mL
- fractional inhibitory concentration index (FICI) (Pseudomonas aeruginosa [13]): 0.75
- FIC (Pseudomonas aeruginosa [14]): 0.25
- MIC (Staphylococcus aureus [15]): 32 µg/mL
- Activity (Cell membrane [16]): inactive
- Activity (Cell membrane [17]): Active
- MIC (Staphylococcus aureus [18]): 32 µg/mL
- MBEC50 (Pseudomonas aeruginosa [19]): 14.2 µM
- MBEC90 (Pseudomonas aeruginosa [19]): 28.5 µM
- FIC (Pseudomonas aeruginosa [20]): 0.5
- fractional inhibitory concentration index (FICI) (Pseudomonas aeruginosa [21]): 1
- MIC (Pseudomonas aeruginosa [3]): 32 µg/mL
- fractional inhibitory concentration index (FICI) (Staphylococcus aureus [22]): 0.75
- MIC (Pseudomonas aeruginosa [23]): 16 µg/mL
- MBEC50 (Pseudomonas aeruginosa [24]): 14.2 µM
- MBEC90 (Pseudomonas aeruginosa [24]): 28.5 µM
- MBIC (Pseudomonas aeruginosa [24]): >7 µM
- MBIC50 (Pseudomonas aeruginosa [24]): 3.6 µM
- fractional inhibitory concentration index (FICI) (Staphylococcus aureus [25]): 0.675
- FIC (Pseudomonas aeruginosa [26]): 0.5
- MIC (Staphylococcus aureus [27]): 64 µg/mL
- MIC (Staphylococcus aureus [28]): 128 µg/mL
- FIC (Pseudomonas aeruginosa [29]): 0.5
- MIC (Pseudomonas aeruginosa [30]): 512 µg/mL
- MIC (Pseudomonas aeruginosa [31]): 512 µg/mL
- MIC (Pseudomonas aeruginosa [32]): 8 µg/mL
- MIC (Staphylococcus aureus [33]): 256 µg/mL
- Flu intensity (Lipopolysaccharide (LPS) [34]): 10.4%
- Activity (Lipopolysaccharide (LPS) [35]): inactive
- fractional inhibitory concentration index (FICI) (Pseudomonas aeruginosa [36]): 0.75
- Flu intensity (Lipopolysaccharide (LPS) [37]): 18.3%
- MIC (Staphylococcus aureus [38]): 64 µg/mL
- Activity (Cell membrane [39]): Active
- Activity (Cell membrane [40]): Active
- FIC (Pseudomonas aeruginosa [41]): 0.25
- Activity (Cell membrane [42]): Active
- MIC (Staphylococcus aureus [43]): 32 µg/mL
- MIC (Pseudomonas aeruginosa [44]): 256 µg/mL
